Assay results: patent US5362856A, “Monooxygenase-like activity of heme proteins” (University of Toronto Innovations Foundation, priority 1993, dated 1994)

Key:
[1] = test system: hemoglobin-Fe(II); experiment: Effect of added agents on the sulfite/heme protein catalysed hydroxylation; type: biochemical; settings: agents in reasonable quantities
[2] = 1 uM methemoglobin, 2.0 Mm anisole, 0.6 mM sodium sulfite, pH 7.0, 37 degrees C
Description: The cleavage of anisole is a more demanding test of monooxygenase activity--see Galaris et. al., Arch. Biochem. Biophys., 1990, 281, 163 n., and Lindsay Smith et.al., J. Chem. Soc. Chem. Commun., 1982, 55. […] The reaction mixtures were preincubated for 5 mins at 37 degrees C. and then terminated by addition of ice-cold 20% trichloroacetic acid (for formaldehyde determination), or by addition of ice-cold diethyl ether and subsequent extraction with diethyl ether (for GC detection of the product phenol).

[3] = Aniline p-hydroxylation catalysed by myoglobin with sodium sulfite; type: biochemical; settings: 0.1 mL of 6 mM sodium sulphite, otherwise as Example 1
Description: An experiment was conducted exactly as described above in connection with Example 1, but using myoglobin Mb, 28 mg, MW18800, from Sigma, in place of Mt, and an amount of 0.1 mL of 6 mM sodium sulphite. Otherwise conditions and quantities were the same.

Row | Molecule | effect on the catalytic hydroxylation process [1] | other results
1 | [C-]#[O+] [carbon monoxide] | inhibited | 
2 | C[S+](C)[O-] [dimethylsulfoxide] | not subject to inhibition | 
3 | CCO [ethanol] | not subject to inhibition | 
4 | OC[C@@H](O)[C@@H](O)[C@H](O)[C@H](O)CO [mannitol] | not subject to inhibition | 
5 | methemoglobin |  | kinetics of hydroxylation with respect to aniline (constant sodium sulfite concentration, 37 degrees C, pH 7.0): follows Michaelis-Menten kinetics; kinetic mechanism on variation of sodium sulfite concentration (sodium sulfite 0.05-0.40 mM, Lineweaver-Burk plots (FIG. 2)): ping-pong mechanism; production of phenol and formaldehyde from anisole [2]: 140 pmol/min
6 | superoxide dismutase: enzyme added to test whether superoxide is involved in the hydroxylation | no effect | 
7 | myoglobin (protein, UniProt P68082 2-154, looked up, myoglobin Mb, MW18800, from Sigma, used in place of Mt) Myoglobin: GLSDGEWQQVLNVWGKVEADIAGHGQEVLIRLFTGHPETLEKFDKFKHLKTEAEMKASEDLKKHGTVVLTALGGILKKKGHHEAELKPLAQSHATKHKIPIKYLEFISDAIIHVLHSKHPGDFGADAQGAMTKALELFRNDIAAKYKELGFQG |  | monooxygenase activity (aniline to p-aminophenol) compared with Mt of Example 1 [3]: essentially similar result
8 | catalase: enzyme added to test whether peroxide is involved in the hydroxylation (protein, UniProt P00432 2-527, looked up) Catalase: ADNRDPASDQMKHWKEQRAAQKPDVLTTGGGNPVGDKLNSLTVGPRGPLLVQDVVFTDEMAHFDRERIPERVVHAKGAGAFGYFEVTHDITRYSKAKVFEHIGKRTPIAVRFSTVAGESGSADTVRDPRGFAVKFYTEDGNWDLVGNNTPIFFIRDALLFPSFIHSQKRNPQTHLKDPDMVWDFWSLRPESLHQVSFLFSDRGIPDGHRHMNGYGSHTFKLVNANGEAVYCKFHYKTDQGIKNLSVEDAARLAHEDPDYGLRDLFNAIATGNYPSWTLYIQVMTFSEAEIFPFNPFDLTKVWPHGDYPLIPVGKLVLNRNPVNYFAEVEQLAFDPSNMPPGIEPSPDKMLQGRLFAYPDTHRHRLGPNYLQIPVNCPYRARVANYQRDGPMCMMDNQGGAPNYYPNSFSAPEHQPSALEHRTHFSGDVQRFNSANDDNVTQVRTFYLKVLNEEQRKRLCENIAGHLKDAQLFIQKKAVKNFSDVHPEYGSRIQALLDKYNEEKPKNAVHTYVQHGSHLSAREKANL | no effect | 
